Source: the supplement of paper PMC10307832

Key:
Test in all cases: relative viability (nuclei count vs DMSO), 5 days (fraction); higher = more cells survive
A-427 = system: A-427
How it was run: (§1)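 Lung cancer cell lines were pin-tool dosed in 1536-well plates on the day after seeding, with either a lone drug or a fixed anchor-drug dose plus five library-drug doses (not always all listed) in √10 steps. Nuclei were counted on 4× images after 5 days. Relative viability is the ratio of treated-well to vehicle-well nuclei counts, with each value a median of duplicate plates.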

NCI-H2347 = system: NCI-H2347
How it was run: as §1

BEN = system: BEN
How it was run: as §1

NCI-H661 = system: NCI-H661
How it was run: as §1

NCI-H460 = system: NCI-H460
How it was run: as §1

EKVX = system: EKVX
How it was run: as §1

EPLC-272H = system: EPLC-272H
How it was run: as §1

NCI-H2087 = system: NCI-H2087
How it was run: as §1

EMC-BAC-2 = system: EMC-BAC-2
How it was run: as §1

NCI-H520 = system: NCI-H520
How it was run: as §1

LK-2 = system: LK-2
How it was run: as §1

LXF-289 = system: LXF-289
How it was run: as §1

SW 1573 = system: SW 1573
How it was run: as §1

SW 900 = system: SW 900
How it was run: as §1

COR-L23 = system: COR-L23
How it was run: as §1

NCI-H2228 = system: NCI-H2228
How it was run: as §1

NCI-H1650 = system: NCI-H1650
How it was run: as §1

NCI-H1793 = system: NCI-H1793
How it was run: as §1

NCI-H1915 = system: NCI-H1915
How it was run: as §1

NCI-H1651 = system: NCI-H1651
How it was run: as §1

HCC-44 = system: HCC-44
How it was run: as §1

NCI-H358 = system: NCI-H358
How it was run: as §1

For `COCC1(CO)C(=O)C2CCN1CC2` (centres undefined) [PRIMA-1MET] + CC(=O)c1c(C)c2cnc(Nc3ccc(N4CCNCC4)cn3)nc2n(C2CCCC2)c1=O [Palbociclib] (partner 0.5 µM), the relative viability (A-427; first compound 0.2 µM) was 0.574, the relative viability (A-427; first compound 0.6325 µM) was 0.523 and the relative viability (A-427; first compound 2 µM) was 0.576. The relative viability (A-427; first compound 6.325 µM) was 0.49, the relative viability (A-427; first compound 20 µM) was 0.525 and the relative viability (NCI-H2347; first compound 0.2 µM) was 0.451. It also gave a relative viability (NCI-H2347; first compound 0.6325 µM) of 0.317, a relative viability (NCI-H2347; first compound 2 µM) of 0.365 and a relative viability (NCI-H2347; first compound 6.325 µM) of 0.42. It also gave a relative viability (NCI-H2347; first compound 20 µM) of 0.313, a relative viability (BEN; first compound 0.2 µM) of 0.46 and a relative viability (BEN; first compound 0.6325 µM) of 0.463. The relative viability (BEN; first compound 6.325 µM) was 0.463, the relative viability (BEN; first compound 20 µM) was 0.437 and the relative viability (NCI-H661; first compound 0.2 µM) was 0.418. The relative viability (NCI-H661; first compound 0.6325 µM) was 0.391, the relative viability (NCI-H661; first compound 2 µM) was 0.414 and the relative viability (NCI-H661; first compound 6.325 µM) was 0.423. The relative viability (NCI-H661; first compound 20 µM) was 0.446, the relative viability (NCI-H460; first compound 0.2 µM) was 0.153 and the relative viability (NCI-H460; first compound 0.6325 µM) was 0.139. The relative viability (NCI-H460; first compound 2 µM) was 0.168, the relative viability (NCI-H460; first compound 6.325 µM) was 0.114 and the relative viability (NCI-H460; first compound 20 µM) was 0.0061. It also gave a relative viability (EKVX; first compound 0.2 µM) of 0.42, a relative viability (EKVX; first compound 2 µM) of 0.346 and a relative viability (EKVX; first compound 6.325 µM) of 0.368. For the same molecule, the relative viability (EKVX; first compound 20 µM) was 0.321, the relative viability (EPLC-272H; first compound 0.2 µM) was 0.312 and the relative viability (EPLC-272H; first compound 0.6325 µM) was 0.276. The relative viability (EPLC-272H; first compound 2 µM) was 0.329, the relative viability (EPLC-272H; first compound 6.325 µM) was 0.336 and the relative viability (EPLC-272H; first compound 20 µM) was 0.289. For the same molecule, the relative viability (NCI-H2087; first compound 0.6325 µM) was 0.183, the relative viability (NCI-H2087; first compound 2 µM) was 0.22 and the relative viability (NCI-H2087; first compound 6.325 µM) was 0.203. The relative viability (NCI-H2087; first compound 20 µM) was 0.13, the relative viability (EMC-BAC-2; first compound 0.2 µM) was 0.586 and the relative viability (EMC-BAC-2; first compound 0.6325 µM) was 0.466. For the same molecule, the relative viability (EMC-BAC-2; first compound 2 µM) was 0.478, the relative viability (EMC-BAC-2; first compound 6.325 µM) was 0.503 and the relative viability (EMC-BAC-2; first compound 20 µM) was 0.499. For the same molecule, the relative viability (NCI-H520; first compound 0.2 µM) was 0.249, the relative viability (NCI-H520; first compound 2 µM) was 0.202 and the relative viability (NCI-H520; first compound 6.325 µM) was 0.216. The relative viability (NCI-H520; first compound 20 µM) was 0.142, the relative viability (LK-2; first compound 0.2 µM) was 0.814 and the relative viability (LK-2; first compound 0.6325 µM) was 0.705. For the same molecule, the relative viability (LK-2; first compound 2 µM) was 0.534, the relative viability (LK-2; first compound 6.325 µM) was 0.211 and the relative viability (LK-2; first compound 20 µM) was 0.0375. It also gave a relative viability (LXF-289; first compound 0.2 µM) of 0.642, a relative viability (LXF-289; first compound 0.6325 µM) of 0.662 and a relative viability (LXF-289; first compound 2 µM) of 0.734. It also gave a relative viability (LXF-289; first compound 6.325 µM) of 0.594, a relative viability (LXF-289; first compound 20 µM) of 0.602 and a relative viability (SW 1573; first compound 0.2 µM) of 0.456. It also gave a relative viability (SW 1573; first compound 0.6325 µM) of 0.317, a relative viability (SW 1573; first compound 2 µM) of 0.345 and a relative viability (SW 1573; first compound 6.325 µM) of 0.0953. It also gave a relative viability (SW 1573; first compound 20 µM) of 0.0194, a relative viability (SW 900; first compound 0.2 µM) of 0.601 and a relative viability (SW 900; first compound 0.6325 µM) of 0.564. For the same molecule, the relative viability (SW 900; first compound 6.325 µM) was 0.559, the relative viability (SW 900; first compound 20 µM) was 0.0834 and the relative viability (COR-L23; first compound 0.2 µM) was 0.291. It also gave a relative viability (COR-L23; first compound 0.6325 µM) of 0.191, a relative viability (COR-L23; first compound 2 µM) of 0.251 and a relative viability (COR-L23; first compound 6.325 µM) of 0.353. It also gave a relative viability (COR-L23; first compound 20 µM) of 0.0222, a relative viability (NCI-H2228; first compound 0.2 µM) of 0.631 and a relative viability (NCI-H2228; first compound 0.6325 µM) of 0.778. The relative viability (NCI-H2228; first compound 2 µM) was 0.742, the relative viability (NCI-H2228; first compound 6.325 µM) was 0.402 and the relative viability (NCI-H2228; first compound 20 µM) was 0.0392. The relative viability (NCI-H1650; first compound 0.2 µM) was 0.322, the relative viability (NCI-H1650; first compound 0.6325 µM) was 0.331 and the relative viability (NCI-H1650; first compound 2 µM) was 0.317. The relative viability (NCI-H1650; first compound 6.325 µM) was 0.315, the relative viability (NCI-H1650; first compound 20 µM) was 0.0802 and the relative viability (NCI-H1793; first compound 0.2 µM) was 0.326. The relative viability (NCI-H1793; first compound 0.6325 µM) was 0.32, the relative viability (NCI-H1793; first compound 6.325 µM) was 0.332 and the relative viability (NCI-H1793; first compound 20 µM) was 0.331. The relative viability (NCI-H1915; first compound 0.2 µM) was 0.507, the relative viability (NCI-H1915; first compound 0.6325 µM) was 0.496 and the relative viability (NCI-H1915; first compound 2 µM) was 0.451. It also gave a relative viability (NCI-H1915; first compound 6.325 µM) of 0.518, a relative viability (NCI-H1915; first compound 20 µM) of 0.523 and a relative viability (NCI-H1651; first compound 0.2 µM) of 0.602. The relative viability (NCI-H1651; first compound 0.6325 µM) was 0.389, the relative viability (NCI-H1651; first compound 2 µM) was 0.473 and the relative viability (NCI-H1651; first compound 6.325 µM) was 0.569. The relative viability (NCI-H1651; first compound 20 µM) was 0.526, the relative viability (HCC-44; first compound 0.2 µM) was 1.02 and the relative viability (HCC-44; first compound 0.6325 µM) was 0.873. For the same molecule, the relative viability (HCC-44; first compound 2 µM) was 0.95, the relative viability (HCC-44; first compound 6.325 µM) was 0.954 and the relative viability (HCC-44; first compound 20 µM) was 1.03. For the same molecule, the relative viability (NCI-H358; first compound 0.2 µM) was 0.148, the relative viability (NCI-H358; first compound 0.6325 µM) was 0.154 and the relative viability (NCI-H358; first compound 2 µM) was 0.115. For the same molecule, the relative viability (NCI-H358; first compound 6.325 µM) was 0.137 and the relative viability (NCI-H358; first compound 20 µM) was 0.112.
